Where two headings read alike, the source gives them in different places.
Legend:
[1] = system: CaMK2a, CaMK2b, CaMK2d, CaMK2g; assay: KiNativ profiling in H3255 cells; format: cell-based; conditions: 2.5 µM; Lys2; DLKPENLLLASK
Protocol: H3255 cells were plated with 6.5x10^6 per condition in fresh media in 15 cm plates and treated the 80% confluency for 2 hours with DMSO or 2.5 μM of ZNL-0056. To harvest cells, plates were washed 3 times with cold PBS, then collected by scraping into 4 mL of cold PBS containing protease and phosphatase inhibitors. Cells were pelleted by centrifugation at 1350 g at 4 ℃ for 5 minutes and immediately frozen in liquid nitrogen. The frozen samples were sent to ActivX Biosciences (La Jolla, CA) for the remainder of the KiNativ profiling experiment4. […]

[2] = system: T1, CDK6; assay: KiNativ profiling in H3255 cells; format: cell-based, human; conditions: 2.5 µM; Lys2; DLKPQNILVTSSGQIK
T1 construct: purchased ActivX Biosciences (KiNativ)
Outline: (§1)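 In H3255 cells, 6.5x10^6 per sample, a 2 h treatment with DMSO or 2.5 μM ZNL-0056 preceded collection. Pellets were frozen in liquid nitrogen and the KiNativ experiment was finished by ActivX Biosciences.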

[3] = system: T2, CDK9; assay: KiNativ profiling in H3255 cells; format: cell-based, human; conditions: 2.5 µM
T2 construct: purchased ActivX Biosciences (KiNativ)
Outline: as §1

[4] = system: T3, CLK2; assay: KiNativ profiling in H3255 cells; format: cell-based, human; conditions: 2.5 µM; Lys2; LTHTDLKPENILFVNSDYELTYNLEK
T3 construct: purchased ActivX Biosciences (KiNativ)
Outline: as §1

[5] = system: T4, CaMK2g; assay: KiNativ profiling in H3255 cells; format: cell-based, human; conditions: 2.5 µM; Lys1; TSTQEYAAKIINTK
T4 construct: purchased ActivX Biosciences (KiNativ)
Outline: as §1

[6] = system: T5, FAK; assay: KiNativ profiling in H3255 cells; format: cell-based, human; conditions: 2.5 µM
T5 construct: purchased ActivX Biosciences (KiNativ)
Outline: as §1

[7] = system: T6, FER; assay: KiNativ profiling in H3255 cells; format: cell-based, human; conditions: 2.5 µM
T6 construct: purchased ActivX Biosciences (KiNativ)
Outline: as §1

[8] = system: T7, FRAP; assay: KiNativ profiling in H3255 cells; format: cell-based, human; conditions: 2.5 µM; ATP; IQSIAPSLQVITSKQRPR
T7 construct: purchased ActivX Biosciences (KiNativ)
Outline: as §1

[9] = system: T8, GSK3B; assay: KiNativ profiling in H3255 cells; format: cell-based, human; conditions: 2.5 µM; Lys2; DIKPQNLLLDPDTAVLK
T8 construct: purchased ActivX Biosciences (KiNativ)
Outline: as §1

[10] = system: T9, MAP2K1; assay: KiNativ profiling in H3255 cells; format: cell-based, human; conditions: 2.5 µM; Lys2; IMHRDVKPSNILVNSR
T9 construct: purchased ActivX Biosciences (KiNativ)
Outline: as §1

[11] = system: MAP3K2, MAP3K3; assay: KiNativ profiling in H3255 cells; format: cell-based, human; conditions: 2.5 µM; Lys2; DIKGANILR
Outline: as §1

[12] = system: T10, MAP3K2; assay: KiNativ profiling in H3255 cells; format: cell-based, human; conditions: 2.5 µM; Lys1; ELAVKQVQFDPDSPETSKEVNALECEIQLLK
T10 construct: purchased ActivX Biosciences (KiNativ)
Outline: as §1

[13] = system: T11, NEK3; assay: KiNativ profiling in H3255 cells; format: cell-based, human; conditions: 2.5 µM; Activation Loop; SKNIFLTQNGK
T11 construct: purchased ActivX Biosciences (KiNativ)
Outline: as §1

[14] = system: T12, PKCi; assay: KiNativ profiling in H3255 cells; format: cell-based, human; conditions: 2.5 µM
T12 construct: purchased ActivX Biosciences (KiNativ)
Outline: as §1

[15] = system: T13, SGK; assay: KiNativ profiling in H3255 cells; format: cell-based, human; conditions: 2.5 µM
T13 construct: purchased ActivX Biosciences (KiNativ)
Outline: as §1

[16] = system: T14, SMG1; assay: KiNativ profiling in H3255 cells; format: cell-based, human; conditions: 2.5 µM, ATP
T14 construct: purchased ActivX Biosciences (KiNativ)
Outline: as §1

[17] = system: T15, SRPK2; assay: KiNativ profiling in H3255 cells; format: cell-based, human; conditions: 2.5 µM; Lys2; IIHTDIKPENILMCVDDAYVR
T15 construct: purchased ActivX Biosciences (KiNativ)
Outline: as §1

[18] = system: T16, TLK1; assay: KiNativ profiling in H3255 cells; format: cell-based, human; conditions: 2.5 µM
T16 construct: purchased ActivX Biosciences (KiNativ)
Outline: as §1

[19] = system: T17, ULK3; assay: KiNativ profiling in H3255 cells; format: cell-based, human; conditions: 2.5 µM; Lys1; EVVAIKCVAK
T17 construct: purchased ActivX Biosciences (KiNativ)
Outline: as §1

[20] = system: Wnk1, Wnk2, Wnk3; assay: KiNativ profiling in H3255 cells; format: cell-based, human; conditions: 2.5 µM; Lys2; DLKCDNIFITGPTGSVK
Outline: as §1

[21] = system: T18, eEF2K; assay: KiNativ profiling in H3255 cells; format: cell-based, human; conditions: 2.5 µM; ATP; YIKYNSNSGFVR
T18 construct: purchased ActivX Biosciences (KiNativ)
Outline: as §1

[22] = system: EGFR^L858R/C797S Ba/F3 cells; assay: Antiproliferation assay (CellTiter-Glo); format: cell-based
Text: (§2) (1 picture or pasted object on this page, not shown here)
protease and phosphatase inhibitors.
Protein expression and purification

[23] = target: BLK (Homo sapiens, UniProt P51451); assay: Z'-LYTE biochemical assay; conditions: read-out: IC50 (nM) against BLK
Text: (§3) Table S2. Biochemical activities against a panel of kinase targets […]
(§4) aIC50 (nM) against EGFR L858R, BTK, JAK3, ITK and BLK were obtained with Z’-LYTE biochemical assay. bIC50 (nM) against MEK5 was obtained with LanthaScreen Binding activity assay. c Kd (nM) of MKK7 were obtained from KdELECT assays (DiscoverX). […]
as §2

[24] = target: BTK (Homo sapiens, UniProt Q06187); assay: Z'-LYTE biochemical assay; conditions: read-out: IC50 (nM) against BTK
Text: as §3, §4, §2

[25] = target: EGFR L858R (Homo sapiens, UniProt P00533, L858R); assay: Z'-LYTE biochemical assay; conditions: read-out: IC50 (nM) against EGFR L858R
Text: as §3, §4, §2

[26] = target: ITK (Homo sapiens, UniProt Q08881); assay: Z'-LYTE biochemical assay; conditions: read-out: IC50 (nM) against ITK
Text: as §3, §4, §2

[27] = target: JAK3 (Homo sapiens, UniProt P52333); assay: Z'-LYTE biochemical assay; conditions: read-out: IC50 (nM) against JAK3
Text: as §3, §4, §2

[28] = target: MEK5 (Homo sapiens, UniProt Q13163); assay: LanthaScreen Binding activity assay; conditions: read-out: IC50 (nM) against MEK5
Text: as §3, §4, §2

[29] = system: T19, CHED; assay: KiNativ profiling in H3255 cells; format: cell-based, human; conditions: 2.5 µM; Lys2; DIKCSNILLNNR
T19 construct: purchased ActivX Biosciences (KiNativ)

[30] = system: T20, PRP4; assay: KiNativ profiling in H3255 cells; format: cell-based, human; conditions: 2.5 µM; Lys2; CNILHADIKPDNILVNESK
T20 construct: purchased ActivX Biosciences (KiNativ)

[31] = Lys1, CIGEGQFGDVHQGIYMSPENPALAVAIKTCK
[32] = Activation Loop, QEDGGVYSSSGLKQIPIK
[33] = Lys2, YLNEIKPPIIHYDLKPGNILLVDGTACGEIK

Chain of BLK (P51451 whole entry): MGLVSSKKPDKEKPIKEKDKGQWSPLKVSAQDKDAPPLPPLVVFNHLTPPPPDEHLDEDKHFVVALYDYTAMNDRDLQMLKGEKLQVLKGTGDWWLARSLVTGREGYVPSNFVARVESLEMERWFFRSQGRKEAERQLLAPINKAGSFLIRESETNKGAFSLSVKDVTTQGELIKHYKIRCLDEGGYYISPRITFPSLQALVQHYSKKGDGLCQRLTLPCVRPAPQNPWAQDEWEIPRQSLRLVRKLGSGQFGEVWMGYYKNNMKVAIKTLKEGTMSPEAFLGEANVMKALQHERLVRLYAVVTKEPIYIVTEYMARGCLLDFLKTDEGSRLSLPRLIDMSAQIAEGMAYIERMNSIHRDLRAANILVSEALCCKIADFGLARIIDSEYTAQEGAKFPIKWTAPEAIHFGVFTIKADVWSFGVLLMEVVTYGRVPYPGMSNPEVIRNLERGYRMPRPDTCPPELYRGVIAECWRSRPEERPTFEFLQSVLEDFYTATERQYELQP
Chain of ITK (Q08881 whole entry): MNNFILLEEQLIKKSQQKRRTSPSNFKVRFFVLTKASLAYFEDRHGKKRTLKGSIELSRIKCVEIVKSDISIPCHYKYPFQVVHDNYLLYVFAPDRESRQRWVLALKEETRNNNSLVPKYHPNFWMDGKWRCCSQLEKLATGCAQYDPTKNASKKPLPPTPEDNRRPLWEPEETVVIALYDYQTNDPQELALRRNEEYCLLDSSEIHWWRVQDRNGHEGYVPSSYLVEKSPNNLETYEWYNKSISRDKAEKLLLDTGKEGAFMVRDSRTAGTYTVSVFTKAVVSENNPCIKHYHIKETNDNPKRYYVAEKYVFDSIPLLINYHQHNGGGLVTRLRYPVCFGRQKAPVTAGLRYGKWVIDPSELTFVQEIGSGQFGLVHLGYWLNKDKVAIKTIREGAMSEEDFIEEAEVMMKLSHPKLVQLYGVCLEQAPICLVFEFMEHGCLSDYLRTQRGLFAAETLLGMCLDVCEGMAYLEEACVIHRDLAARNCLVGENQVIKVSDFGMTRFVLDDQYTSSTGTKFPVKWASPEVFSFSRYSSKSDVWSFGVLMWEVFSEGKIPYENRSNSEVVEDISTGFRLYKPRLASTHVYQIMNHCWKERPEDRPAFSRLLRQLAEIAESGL
Chain of MEK5 (Q13163 whole entry, species assumed): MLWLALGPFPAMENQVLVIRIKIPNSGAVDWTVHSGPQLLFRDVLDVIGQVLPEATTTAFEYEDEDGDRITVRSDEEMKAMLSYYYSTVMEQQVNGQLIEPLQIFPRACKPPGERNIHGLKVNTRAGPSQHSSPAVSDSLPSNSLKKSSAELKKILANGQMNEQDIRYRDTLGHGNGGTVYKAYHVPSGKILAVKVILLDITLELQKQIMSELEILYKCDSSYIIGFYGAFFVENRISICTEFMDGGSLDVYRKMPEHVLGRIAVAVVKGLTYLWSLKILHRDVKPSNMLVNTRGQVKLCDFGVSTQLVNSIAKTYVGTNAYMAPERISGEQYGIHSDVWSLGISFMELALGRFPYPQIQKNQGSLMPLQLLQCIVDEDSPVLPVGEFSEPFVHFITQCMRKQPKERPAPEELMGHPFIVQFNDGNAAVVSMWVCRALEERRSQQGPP
Chain of BTK (Q06187 whole entry): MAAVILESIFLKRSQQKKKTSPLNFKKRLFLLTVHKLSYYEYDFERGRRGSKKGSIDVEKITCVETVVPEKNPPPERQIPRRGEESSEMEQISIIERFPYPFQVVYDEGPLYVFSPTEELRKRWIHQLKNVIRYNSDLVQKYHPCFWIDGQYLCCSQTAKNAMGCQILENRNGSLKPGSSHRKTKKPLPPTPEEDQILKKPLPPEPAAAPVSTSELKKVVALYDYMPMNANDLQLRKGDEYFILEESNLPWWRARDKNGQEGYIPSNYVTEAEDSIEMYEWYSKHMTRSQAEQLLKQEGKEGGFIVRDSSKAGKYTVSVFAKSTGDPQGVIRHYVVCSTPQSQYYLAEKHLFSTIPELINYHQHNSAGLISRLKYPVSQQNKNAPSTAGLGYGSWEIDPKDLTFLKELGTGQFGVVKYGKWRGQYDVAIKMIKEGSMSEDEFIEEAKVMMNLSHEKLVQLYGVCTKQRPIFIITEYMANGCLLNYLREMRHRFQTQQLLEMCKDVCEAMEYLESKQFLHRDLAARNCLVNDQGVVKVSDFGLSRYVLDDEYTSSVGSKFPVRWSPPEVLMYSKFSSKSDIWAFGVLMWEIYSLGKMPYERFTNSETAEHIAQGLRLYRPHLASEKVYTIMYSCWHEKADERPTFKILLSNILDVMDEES
Chain of EGFR L858R (P00533 25-1210 L858R): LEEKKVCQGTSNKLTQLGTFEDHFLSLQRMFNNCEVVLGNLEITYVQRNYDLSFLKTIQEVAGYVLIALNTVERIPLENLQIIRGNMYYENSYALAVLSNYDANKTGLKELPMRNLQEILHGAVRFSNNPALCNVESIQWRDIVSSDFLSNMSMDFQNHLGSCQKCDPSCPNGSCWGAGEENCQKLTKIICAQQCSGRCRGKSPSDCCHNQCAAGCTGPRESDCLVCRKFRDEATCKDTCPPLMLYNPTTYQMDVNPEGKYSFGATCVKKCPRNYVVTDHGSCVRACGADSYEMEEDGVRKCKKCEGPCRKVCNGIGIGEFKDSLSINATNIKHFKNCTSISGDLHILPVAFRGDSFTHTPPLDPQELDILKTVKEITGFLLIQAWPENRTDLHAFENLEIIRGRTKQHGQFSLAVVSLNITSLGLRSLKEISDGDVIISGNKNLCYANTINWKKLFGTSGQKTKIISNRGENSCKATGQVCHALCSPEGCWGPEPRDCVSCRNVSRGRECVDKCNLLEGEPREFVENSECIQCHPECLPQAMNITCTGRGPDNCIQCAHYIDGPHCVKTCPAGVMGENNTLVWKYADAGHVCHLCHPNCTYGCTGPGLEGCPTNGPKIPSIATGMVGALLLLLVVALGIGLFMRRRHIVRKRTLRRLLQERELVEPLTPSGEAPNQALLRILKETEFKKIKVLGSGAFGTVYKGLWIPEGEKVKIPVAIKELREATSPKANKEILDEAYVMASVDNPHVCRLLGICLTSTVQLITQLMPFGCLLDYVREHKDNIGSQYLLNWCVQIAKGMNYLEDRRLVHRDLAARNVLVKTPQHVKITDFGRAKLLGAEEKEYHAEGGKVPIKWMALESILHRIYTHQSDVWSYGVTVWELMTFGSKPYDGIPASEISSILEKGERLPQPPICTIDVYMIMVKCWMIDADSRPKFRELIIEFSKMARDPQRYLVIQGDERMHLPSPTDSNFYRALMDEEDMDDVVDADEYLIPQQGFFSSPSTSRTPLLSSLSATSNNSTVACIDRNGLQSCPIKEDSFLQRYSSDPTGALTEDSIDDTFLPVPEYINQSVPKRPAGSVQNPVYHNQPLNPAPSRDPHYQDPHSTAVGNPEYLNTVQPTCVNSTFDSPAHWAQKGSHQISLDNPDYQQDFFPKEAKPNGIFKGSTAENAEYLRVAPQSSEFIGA
Chain of JAK3 (P52333 whole entry): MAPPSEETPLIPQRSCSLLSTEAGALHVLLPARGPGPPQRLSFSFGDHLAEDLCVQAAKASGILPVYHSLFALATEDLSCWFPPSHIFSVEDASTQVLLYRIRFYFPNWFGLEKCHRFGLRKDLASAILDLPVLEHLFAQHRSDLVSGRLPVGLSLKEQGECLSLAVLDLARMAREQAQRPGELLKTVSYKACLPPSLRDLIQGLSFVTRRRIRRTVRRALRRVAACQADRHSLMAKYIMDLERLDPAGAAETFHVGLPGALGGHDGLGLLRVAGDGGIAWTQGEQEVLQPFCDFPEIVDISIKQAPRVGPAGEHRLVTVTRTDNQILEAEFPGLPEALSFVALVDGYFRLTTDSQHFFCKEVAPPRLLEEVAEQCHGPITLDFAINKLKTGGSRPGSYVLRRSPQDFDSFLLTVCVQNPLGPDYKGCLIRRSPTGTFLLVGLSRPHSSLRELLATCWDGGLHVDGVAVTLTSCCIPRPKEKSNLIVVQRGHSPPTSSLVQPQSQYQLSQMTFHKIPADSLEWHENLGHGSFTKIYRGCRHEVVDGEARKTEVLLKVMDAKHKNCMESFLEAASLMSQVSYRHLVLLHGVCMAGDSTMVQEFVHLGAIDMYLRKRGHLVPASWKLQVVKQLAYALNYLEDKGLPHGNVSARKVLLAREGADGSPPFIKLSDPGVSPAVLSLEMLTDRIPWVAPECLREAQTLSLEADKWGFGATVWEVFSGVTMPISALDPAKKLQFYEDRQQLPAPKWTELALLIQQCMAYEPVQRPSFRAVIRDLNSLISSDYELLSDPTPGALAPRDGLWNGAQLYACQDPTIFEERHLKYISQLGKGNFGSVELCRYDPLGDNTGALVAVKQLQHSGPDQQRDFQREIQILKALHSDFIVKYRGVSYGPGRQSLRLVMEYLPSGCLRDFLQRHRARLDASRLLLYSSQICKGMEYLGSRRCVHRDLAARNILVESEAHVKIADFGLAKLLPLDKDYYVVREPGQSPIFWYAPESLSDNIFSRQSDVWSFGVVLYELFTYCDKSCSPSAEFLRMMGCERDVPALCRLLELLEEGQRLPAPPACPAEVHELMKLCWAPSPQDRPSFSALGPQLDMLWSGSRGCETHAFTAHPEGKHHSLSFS

Row | Compound | Inhibition [1] [%] | Inhibition [2] [%] | Inhibition ([3]; ATP Loop, IGQGTFGEVFKAR) [%] | Inhibition ([3]; Lys2, DMKAANVLITR) [%] | Inhibition [4] [%] | Inhibition [5] [%] | Inhibition ([6]; Activation Loop, YMEDSTYYKASK) [%] | Inhibition [6, 31] [%] | Inhibition [7, 32] [%] | Inhibition ([7]; Lys1, TSVAVKTCKEDLPQELK) [%] | Inhibition [8] [%] | Inhibition [9] [%] | Inhibition [10] [%] | Inhibition [11] [%] | Inhibition [12] [%] | Inhibition [13] [%] | Inhibition ([14]; Lys1, IYAMKVVK) [%] | Inhibition ([14]; Lys2, DLKLDNVLLDSEGHIK) [%] | Inhibition ([15]; Lys1, HKAEEVFYAVKVLQK) [%] | Inhibition ([15]; Lys2, DLKPENILLDSQGHIVLTDFGLCK) [%] | also measured
1 | C=CC(=O)Nc1cc(C(=O)Nc2nc3cccc(C)c3n2[C@@H]2CCCCN(C(=O)C=C)C2)cs1 [ZNL-0056] | -8.1 | -27.5 | -9.9 | 16.6 | 9.5 | -27.3 | -16.1 | -40.2 | -11.1 | -6.4 | -27.2 | -4.3 | -10.3 | -6.0 | 12.2 | -5.3 | 2.3 | 15.4 | 12.6 | 1.7 | Inhibition ([16]; DTVTIHSVGGTITILPTKTKPK): -33.9%; Inhibition ([16]; SYPYLFKGLEDLHLDER): -11.5%; Inhibition [17]: 10.0%; Inhibition ([18]; Lys1, YAAVKIHQLNK): 31.3%; Inhibition [18, 33]: 13.1%; Inhibition [19]: -7.8%; Inhibition [20]: -34.6%; Inhibition [21]: -31.5%; activity loss in cells dependent on EGFR^C797S for growth ([22]; vs EGFR^L858R Ba/F3): 50 fold; IC50 [23]: 3.17 nM; IC50 [24]: 1.13 nM; IC50 [25]: 6.21 nM; IC50 [26]: 7.81 nM; IC50 [27]: 5.79 nM; IC50 [28]: 2500 nM
2 | C=CC(=O)Nc1cc(Nc2nccc(-c3cn(C)c4ccccc34)n2)c(OC)cc1N(C)CCN(C)C [Osimertinib, osimertinib, reference compound] | 3.2 | -8.5 | 12.0 | 22.6 | 26.6 | -34.8 | -25.6 | 16.5 | 28.7 | -15.4 | -39.1 | -0.3 | -20.8 | -6.6 | -20.3 | -0.9 | 5.6 | -27.3 | 13.2 | -15.1 | Inhibition [29]: 28.0%; Inhibition ([16]; DTVTIHSVGGTITILPTKTKPK): -6.7%; Inhibition ([16]; SYPYLFKGLEDLHLDER): -44.3%; Inhibition [17]: -2.3%; Inhibition ([18]; Lys1, YAAVKIHQLNK): -53.3%; Inhibition [18, 33]: 7.2%; Inhibition [19]: -21.6%; Inhibition [20]: 11.9%; Inhibition [21]: -9.7%; Inhibition [30]: -3.8%; activity loss in cells dependent on EGFR^C797S for growth [22]: 300 fold

Source: article PMC11212140, “Molecular Bidents with Two Electrophilic Warheads as a New Pharmacological Modality” (ACS Central Science, 2024)
